Where “and” joins values, the source holds several entries; their conditions need not be identical. Identical values can stand only once. Like-named read-outs stand apart in the source and are kept apart here.
Key:
Rats: Wistar femelles [1] = assay: Atherogenic diet (modified Aubert technique): macroscopic examination of the aorta; format: in vivo, Rat Wistar; details: for Intensité des lésions Cotation: scale Stade 0 to Stade 5
From the text: (§1) La technique utilisée est celle, légèrement modifiée, de AUBERT D., FERAUD J.C., LACAZE B., PEPINO., PANAK E. et PODESTA M. "Athérogénèse expérimentale chez le Rat Wistar". ATHEROSCLEROSIS 2Q (1974) 263 - 280.
(§2) • - Rats: Wistar femelles, E.O.P.S. en provenance de l'élevage EVIC-CEBA. • - Poids corporel: 160 180 g au départ de l'étude • - Alimentation: UAR A03, enrichi en cholestérol (0,5 %) et en Acide chloique (0,5 %). • - Eau de boisson: eau de ville. • - 15 animaux par lot et par cage MAKROLON SAFI® de 59 x 38,5 cm sur litière de copeaux de bois blanc dépoussiérés. • - Cages placées dans un module animalerie climatisé (20°C * 1°C), à l'humidité constante (50 % ± 10 %). Durée d'éclairement: 12 heures par jour (7 h à 19 h). • - Administration des produits: Après 15 jours de régime athéromateux, on leur administre par voie orale pendant 4 jours 250 000 Ul/kg de vitamine D2 (Stérogyl 15 H) en solution dans l'huile d'olive. On administre ensuite les produits à étudier pendant 4 semaines dès la fin de l'administration de l'agent lésionnel.
En fin d'étude, tous les animaux sont sacrifiés par ponction subtotale du sang à l'aorte abdominale après anesthésie au pentobarbital sodique. On prélève le coeur, le foie et l'aorte sur laquelle on effectue la cotation du pouvoir athérogène. Pour ce faire, les aortes sont coupées longitudinalement puis étalées pour permettre une vue d'ensemble du revêtement endothélial depuis les valvules aortiques jusqu'à la bifurcation du tronc coeliaque (segment inférieur de l'aorte thoracique).
L'aorte est séparée en 2 zones: • - Zone 1: Valvules aortiques - premières artères intercostales • - Zone 2: premières artères intercostales - bifurcation du tronc coeliaque.
L'intensité des dépôts athéromateux est évaluée selon les critères suivants: • - Stade 0: Absence de dépôts • - Stade 1: Dépôts discrets ([…]) peu nombreux • - Stade 2: Dépôts discrets nombreux • - Stade 3: Dépôts importants (> 1 mm) nombreux • - Stade 4: Dépôts très importants ou très nombreux mais laissant quelques zones non infiltrées. • - Stade 5: Dépôts sur tout l'endothélium.
Deux paramètres sont à prendre en considération: • 1. Le nombre d'animaux présentant des lésions macroscopiques, dont le pourcentage d'animaux atteints. • 2. L'intensité des lésions observées cotées selon les indications fournies précédemment.

[2] = Earlier anti-inflammatory test; format: in vivo; details: dose de 250 mg/kg
Rats: Wistar femelles [3] = assay: Atherogenic diet (modified Aubert technique): biochemical examinations and atherogenic risk; format: in vivo, Rat Wistar; set-up: score général Biochimie / Risque athérogène Score Total: scale not given here; details: for Cholesterol LDL Cholesterol HDL Score / Cholesterol T/ Cholesterol HDL Score: atherogenic risk ratio; for score général Biochimie: sum of the individual biochemical scores
From the text: as §1, §2
L'étude porte sur 5 Lots de 15 rats (tableau N° IV)
En fin d'étude, on pratique sur tous les animaux survivants les examens suivants: • - Cholestérol total, • - Cholestérol estérifié, • - Cholestérol HDL • - Cholestérol LDL (évaluation), • - Lipides totaux, • - Triglycérides.

Souris SWISS = assay: Acute toxicity, single administration, intraperitoneal route; format: in vivo; details: for DLO: DLO = Dose Maxima toujours tolérée
Description: (§3) Souris SWISS mâles et femelles de 22 à 25g de poids corporel. Animaux EOPS.
(§4) Sauf mention contraire précisée dans les tableaux de résultats, 10 animaux par dose, sexe et cage en MAKROLON SAFI@ de 40/25 cm. Litière de copeaux de bois blanc. Alimentation standard pour rats et souris UAR et eau ordinaire à volonté.
(§5) Ils sont administrés sans jeûne préalable: • - par voie digestive (intubation gastrique par sonde oesophagienne métallique) à raison de 0,5 ml ou 1 ml pour 20 g de poids corporel d'une suspension aqueuse à 3p.100 en gomme arabique du dérivé testé. • - par voie intrapéritonéale à raison de 0,5 ml ou 1 ml pour 20 g d'une suspension du dérivé testé dans le soluté isotonique de chlorure de sodium à 3p.100 en gomme arabique.
(§6) Pendant 6 heures après l'administration unique, puis tous les jours pendant 15 jours.
(§7) S'il y a lieu, les doses létales cinquante (DL50) sont calculées selon les méthodes de: • - Behrens et Karber (B.K.) • - Miller et Tainter (M.T.), cette dernière méthode permettant d'attribuer, pour le seuil de probabilité de P = 0,05 un intervalle de confiance aux DL 50.
(§8) En outre, sont déterminées les DLO et DL100. • - DLO = DMT: Dose Maxima toujours tolérée • - DL100 = DmM: Dose minima toujours Mortelle.

[4] = as above; format: in vivo; details: mouse, in vivo, ip; for mortality at 360 h: single dose; for LD50 at 360 h: read-out: DL50
Description: as §3, §4, §5, §6, §7, §8

Rat sain = assay: Chronic administration, maximum tolerated dose in the rat; format: in vivo; details: administration chronique
Description: (§9) • - Le comportement et l'[…] pondérale des animaux sont étudiés par l'observation quotidienne et les pesées hebdomadaires. L'étude de l'évolution pondérale ne montre pas de différence significative entre les différents lots. C'est un indice de bonne tolérance du traitement. • - La moralité est notée dans chaque lot; elle peut atteindre 30 % des animaux ce qui nécessite des lots de 15 animaux. L'administration chronique de 100 mg/kg de Clofibrate correspond à la dose maximale tolérée par le Rat sain selon nos expériences personnelles.

[5] = as above; format: in vivo; details: rat, in vivo, administration chronique, read-out: dose maximale tolérée
Description: as §9

[6] = compared with Clofibrate at the same dose
[7] = 100 mg/kg, 4 weeks, score relative to Clofibrate (Base 1)

COc1ccc(C(=O)CC2(O)C(=O)c3ccccc3C2=O)cc1OC [Produit de l'invention, 2-[(3,4-dimethoxybenzoyl)methyl] 2-hydroxy 1,3-dioxo indane]
Animaux Atteints Score Clofibrate (Rats: Wistar femelles [1]; 100 mg/kg): 1.69 | Intensité des lésions Score Clofibrate (Rats: Wistar femelles [1]; 100 mg/kg): 0.88 | Observations Macroscopiques Score Total (Rats: Wistar femelles [1]; 100 mg/kg): 2.57 | Animaux Atteints % (Rats: Wistar femelles [1]; 100 mg/kg, animals with macroscopic lesions): 69.23% | Intensité des lésions Cotation (Rats: Wistar femelles [1]; 100 mg/kg): 2.08 | activité sur l'évalution des lésions macroscopiques (Rats: Wistar femelles [1]; [6]): plus actif | effet anti-inflammatoire [2]: effet liminaire anti-inflammatoire | Cholesterol LDL Cholesterol HDL Score/Clofibrate (Rats: Wistar femelles [3]; 100 mg/kg): 0.46 | Cholesterol T/ Cholesterol HDL Score/Clofibrate (Rats: Wistar femelles [3]; 100 mg/kg): 0.44 | Risque athérogène Score Total (Rats: Wistar femelles [3]; 100 mg/kg): 0.90 | Cholesterol E Score (Rats: Wistar femelles [3]; [7]): 1.05 | Cholesterol LDL Score (Rats: Wistar femelles [3]; [7]): 1.04 | Cholesterol T Score (Rats: Wistar femelles [3]; [7]): 1.14 | Lipides totaux Score (Rats: Wistar femelles [3]; [7]): 1.37 | Triglycerides Score (Rats: Wistar femelles [3]; [7]): 1.07 | Cholesterol LDL Cholesterol HDL Score (Rats: Wistar femelles [3]; 100 mg/kg): 15.63 | Cholesterol T/ Cholesterol HDL Score (Rats: Wistar femelles [3]; 100 mg/kg): 17.81 | score général Biochimie (Rats: Wistar femelles [3]; 100 mg/kg): 5.6 and 5.67 | activité sur les paramètres biochimiques (Rats: Wistar femelles [3]; [6]): aussi actif que le Clofibrate | activité anti-lipémiante (Rats: Wistar femelles [3]; dès la dose de 100 mg/kg): nette activité anti-lipémiante | DLO (Souris SWISS; IP, Souris Femelles): 2000 mg/kg | DLO (Souris SWISS; IP, Souris Mâles): 2000 mg/kg | La mort survient par arrêt respiratoire en (Souris SWISS; IP, time to death after injection): 24 - 48 heures | mortality at 360 h ([4]; 2000 mg/kg, 2000 mg/kg IP, read-out: Létalite sur 10 souris Femelles): 0% | mortality at 360 h ([4]; 2000 mg/kg, 2000 mg/kg IP, read-out: Létalite sur 10 souris Mâles): 0% | mortality at 360 h ([4]; 2500 mg/kg, 2500 mg/kg IP, read-out: Létalite sur 10 souris Femelles): 10% | mortality at 360 h ([4]; 2500 mg/kg, 2500 mg/kg IP, read-out: Létalite sur 10 souris Mâles): 10% | mortality at 360 h ([4]; 3000 mg/kg, 3000 mg/kg IP, read-out: Létalite sur 10 souris Femelles): 60% | mortality at 360 h ([4]; 3000 mg/kg, 3000 mg/kg IP, read-out: Létalite sur 10 souris Mâles): 30% | mortality at 360 h ([4]; 3500 mg/kg, 3500 mg/kg IP, read-out: Létalite sur 10 souris Femelles): 80% | mortality at 360 h ([4]; 3500 mg/kg, 3500 mg/kg IP, read-out: Létalite sur 10 souris Mâles): 50% | mortality at 360 h ([4]; 4000 mg/kg, 4000 mg/kg IP, read-out: Létalite sur 10 souris Femelles): 100% | mortality at 360 h ([4]; 4000 mg/kg, 4000 mg/kg IP, read-out: Létalite sur 10 souris Mâles): 80% | mortality at 360 h ([4]; 4500 mg/kg, 4500 mg/kg IP, read-out: Létalite sur 10 souris Femelles): 100% | mortality at 360 h ([4]; 4500 mg/kg, 4500 mg/kg IP, read-out: Létalite sur 10 souris Mâles): 100% | mortality at 360 h ([4]; 5000 mg/kg, 5000 mg/kg IP, read-out: Létalite sur 10 souris Femelles): 100% | mortality at 360 h ([4]; 5000 mg/kg, 5000 mg/kg IP, read-out: Létalite sur 10 souris Mâles): 100% | LD50 at 360 h ([4]; Souris Femelles, method Behrens et Karber (B.K.)): 3000 mg/kg | LD50 at 360 h ([4]; Souris Femelles, method Miller et Tainter (M.T.), confidence interval P = 0,05): 3000 ± 145 mg/kg | LD50 at 360 h ([4]; Souris Mâles, method Behrens et Karber (B.K.)): 3400 mg/kg | LD50 at 360 h ([4]; Souris Mâles, method Miller et Tainter (M.T.), confidence interval P = 0,05): 3350 ± 190 mg/kg | LD50 at 360 h ([4]; voie intrapéritonéale, sex not specified, "de l'ordre de"): ~3000 mg/kg

CCOC(=O)C(C)(C)Oc1ccc(Cl)cc1 [Clofibrate]
Intensité des lésions Cotation (Rats: Wistar femelles [1]; 100 mg/kg): 2.00 | Cholesterol LDL Cholesterol HDL Score/Clofibrate (Rats: Wistar femelles [3]; 100 mg/kg): 1.00 | Cholesterol T/ Cholesterol HDL Score/Clofibrate (Rats: Wistar femelles [3]; 100 mg/kg): 1.00 | Risque athérogène Score Total (Rats: Wistar femelles [3]; 100 mg/kg): 2 | Cholesterol E Score (Rats: Wistar femelles [3]; [7]): 1.00 | Cholesterol HDL Score (Rats: Wistar femelles [3]; [7]): 1.00 | Cholesterol LDL Score (Rats: Wistar femelles [3]; [7]): 1.00 | Cholesterol T Score (Rats: Wistar femelles [3]; [7]): 1.00 | Lipides totaux Score (Rats: Wistar femelles [3]; [7]): 1.00 | Triglycerides Score (Rats: Wistar femelles [3]; [7]): 1.00 | Cholesterol LDL Cholesterol HDL Score (Rats: Wistar femelles [3]; 100 mg/kg): 5.35 | Cholesterol T/ Cholesterol HDL Score (Rats: Wistar femelles [3]; 100 mg/kg): 6.69 | score général Biochimie (Rats: Wistar femelles [3]; 100 mg/kg): 6 | DL50 (Souris SWISS; mouse, in vivo, ip, 21600 min): ~1700 mg/kg | LD50 at 360 h ([4]; voie intrapéritonéale, mâles, "de l'ordre de"): ~1850 mg/kg | dose maximale tolérée (Rat sain): 100 mg/kg | MTD [5]: ~100 mg/kg

From patent EP0167553B1, “NEW THERAPEUTICAL APPLICATION OF AN INDANE DIONE DERIVATIVE AND PHARMACEUTICAL COMPOSITIONS INTENDED TO SAID UTILIZATION” (priority 1983, dated 1985)
